Read-outs that look alike come from different tables or passages of the source. Each block holds one molecule with its values, some of them ahead of it.
What was measured:
LANCL2 [1] = biological target: T1, LANCL2 (Homo sapiens, UniProt Q9NS86); conditions: rows marked REF 18; read-out: SPR Affinity to LANCL2 (Kd); cited from earlier work
T1 sequence (Q9NS86 1-450): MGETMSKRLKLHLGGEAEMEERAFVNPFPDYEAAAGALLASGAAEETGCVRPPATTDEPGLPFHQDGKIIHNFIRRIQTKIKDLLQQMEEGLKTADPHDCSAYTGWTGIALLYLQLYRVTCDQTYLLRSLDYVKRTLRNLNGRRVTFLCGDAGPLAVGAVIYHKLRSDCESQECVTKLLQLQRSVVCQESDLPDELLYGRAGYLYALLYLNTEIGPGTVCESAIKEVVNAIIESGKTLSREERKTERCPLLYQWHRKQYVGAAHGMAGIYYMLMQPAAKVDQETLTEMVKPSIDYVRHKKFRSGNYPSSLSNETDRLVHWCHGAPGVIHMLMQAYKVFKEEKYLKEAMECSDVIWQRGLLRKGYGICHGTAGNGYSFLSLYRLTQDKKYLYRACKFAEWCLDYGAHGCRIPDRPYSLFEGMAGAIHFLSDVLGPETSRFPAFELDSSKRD

LANCL2 [2] = biological target: T1, LANCL2; experiment: Surface plasmon resonance (SPR) binding to LANCL2; conditions: Tables 1A and 1B; read-out: SPR Affinity to LANCL2 (Kd)
CD4+ T cells = experiment: Differentiation of CD4+ T cells into Tregs with metabolic modulators; assay type: cell-based, mice; conditions: BT-11 with PS-48 (5 μM), DASA-58 (10 μM) or thapsigargin (10 nM)
Experimental: (§1) Spleens from WT and Lancl2−/− mice were excised and crushed to generate a single cell suspension. CD4+ T cell fraction was enriched by negative selection via magnetic sorting with the BD IMag system. Naïve CD4+ T cells were obtained by incubation with a biotinylated CD62L antibody followed by conjugation to streptavidin coated magnetic beads. Naïve cells were incubated for 48 hours within anti-CD3 coated tissue culture plates in complete IMDM media containing all-trans retinoic acid and purified TGF-β to stimulate differentiation into Tregs. […] Metabolic modulators, PS-48 (5 μM), DASA-58 (10 μM), and thapsigargin (10 nM), were added at 0 h. […] Six hours prior to assay, cells were stimulated with PMA and ionomycin. Cells were collected from plate for downstream analysis by flow cytometry, gene expression and metabolic assay.

Mdr1a−/− mice = Mdr1a−/− mice with PS-48 injections (in vivo validation of immunometabolic effect); conditions: weekly intraperitoneal injections of PS-48
Experimental: (§2) Colons and cells were suspended within assay specific buffer and homogenized for 10 seconds. Homogenate was centrifuged for 10 minutes at 10,000×g. For enzyme activity assays, supernatant was collected and plated. Samples were mixed with enzyme developer and substrate. Colorimetric detection of NADH production was measured using a BioTek μQuant plate reader in combination with Gen5 software. For PEP assay, supernatant was deproteinized using perchloric acid mediated purification. Samples were plated and mixed with a probe, converter, developer mix. PEP concentration was measured by absorbance quantification on plate reader.
To validate the in vitro immunometabolic findings, Mdr1a−/− mice were given weekly intraperitoneal injections of PS-48 or vehicle control. […] Similar patterns were observed within the DSS model.

WT Tregs = experiment: Metabolic analysis (pyruvate kinase, pyruvate dehydrogenase, PEP) in in vitro Tregs; assay type: cell-based, mice; conditions: PS-48 (5 μM)
Experimental: as §2
as §1, with “Cells were collected from plate for downstream analysis by flow cytometry, gene expression and metabolic assay.” left out

[3] = system: PBMCs from Crohn's disease donors; experiment: PBMCs isolated from Crohn's disease donors, 24 hour culture; assay type: cell-based, human; conditions: presence of thapsigargin
Experimental: Fresh de-identified whole blood was obtained from commercial vendor. Blood was diluted and purified for PBMC fraction by LeukoSep tube. Remaining red blood cells were lysed by hypotonic lysis. […] For siRNA experiments, cells were first incubated with an OriGene 3-mer LANCL2 siRNA or scrambled control suspended within ViromerGreen transfection reagent for 6 hours. […] Cells were stimulated with PMA and ionomycin six hours prior to assay.
Whole blood was obtained from Crohn's disease patients, clinically categorized as mild to moderate disease.

C. difficile = C. difficile culture in chopped meat media (anti-microbial properties); conditions: 10 ug/mL

Compound: CC1=CC(=O)CC(C)(C)[C@]1(O)/C=C/C(C)=C\C(=O)O [ABA, abscisic acid]
Kd (LANCL2 [1]): 2.3 µM

Kd (LANCL2 [2]): 84.3 µM
Compound: O=C(c1cccc(-c2nc3ccccc3[nH]2)c1)N1CCN(C(=O)c2cccc(-c3nc4ccccc4[nH]3)c2)CC1 [BT-4]

Compound: O=C(Nc1ccc(NC(=O)c2cccc(-c3nc4ccccc4[nH]3)c2)cc1)c1cccc(-c2nc3ccccc3[nH]2)c1 [BT-6]
Kd (LANCL2 [2]): 18.2 µM

Kd (LANCL2 [2]): 21.4 µM
Compound: O=C(c1cccc(-c2nc3ccccc3[nH]2)n1)N1CCN(C(=O)c2cccc(-c3nc4ccccc4o3)n2)CC1 [BT-15]

Kd (LANCL2 [2]): 11.7 µM
Compound: O=C1CC=C(/C=C/c2ccc(C(=O)O)o2)CC1 [BT-ABA-5a]

Kd (LANCL2 [2]): 4.65 µM
Compound: O=C1CCC(O)(/C=C/c2cccc(C(=O)O)n2)CC1 [BT-ABA-13]

Kd (LANCL2 [2]): 4.85 µM
Compound: O=C1CCC(O)(/C=C/c2cc(C(=O)O)ccn2)CC1 [BT-ABA-16]

Kd (LANCL2 [2]): 177 µM
Compound: O=C1CCC(O)(/C=C/c2ccc(C(=O)O)o2)CC1 [BT-ABA-25]

Kd (LANCL2 [2]): 163 µM
Compound: O=C1CCC(O)(/C=C/c2cccc(C(=O)O)c2)CC1 [BT-BA-6]

Compound: O=C(Nc1cccc(-c2nc3c([nH]2)C=CCC3)c1)c1ccc(C(=O)Nc2cccc(-c3nc4c([nH]3)C=CCC4)c2)cc1 [Compound 61610]
Kd (LANCL2 [1]): 6.2 µM

Compound: Nc1cccc(S(=O)(=O)N2CCCN(S(=O)(=O)c3ccc4c(c3)OCCO4)CC2)c1 [DASA-58]
Treg cell differentiation (CD4+ T cells): promotes high level differentiation in both treated and untreated cells

BT-11 induced change in PEP and PDH activity under PS-48 (WT Tregs): abrogated by treatment with PS-48
Compound: O=C(O)/C=C(/CCc1ccc(Cl)cc1)c1ccccc1 [PS-48, reference compound]
BT-11-induced changes across clinical, cellular and metabolic measures (Mdr1a−/− mice): effectively blocked the BT-11-induced changes | Treg cell differentiation (CD4+ T cells): abrogates the increased differentiation of Tregs generated by BT-11

Compound: C/C=C(/C)C(=O)O[C@H]1C(C)=C2[C@H]([C@@H]1OC(=O)CCCCCCC)[C@@](C)(OC(C)=O)C[C@H](OC(=O)CCC)[C@@]1(O)[C@H]2OC(=O)[C@@]1(C)O [thapsigargin, reference compound]
Treg cell differentiation (CD4+ T cells): diminishes the BT-11 induced increase in Treg cell differentiation | induction of FOXP3+ cells in PBMCs treated with BT-11 [3]: prevented the increased induction of FOXP3+ cells

Compound: CN[C@H](CC(C)C)C(=O)N[C@H]1C(=O)N[C@@H](CC(N)=O)C(=O)N[C@H]2C(=O)N[C@H]3C(=O)N[C@H](C(=O)N[C@H](C(=O)O)c4cc(O)cc(O)c4-c4cc3ccc4O)[C@H](O)c3ccc(c(Cl)c3)Oc3cc2cc(c3O[C@@H]2O[C@H](CO)[C@@H](O)[C@H](O)[C@H]2O[C@H]2C[C@](C)(N)[C@H](O)[C@H](C)O2)Oc2ccc(cc2Cl)[C@H]1O [vancomycin, reference compound]
reduction of colony forming units (C. difficile): 95% | colony forming units (C. difficile; from 4 million): under 200,000

From US11197891B2, “Therapies with lanthionine C-like protein 2 ligands and cells prepared therewith” (Landos Biopharma, Inc., priority 2017, dated 2021)
